Results on 2 compounds are retold here after patent publication US20240103005A1, “N-ACRYLOYLINDOLES AND METHODS OF USE” (The University of Hong Kong, priority 2022, published 2024).

Entries after “also recorded” stand apart in the source; their conditions may differ.

Test [1] can be described thus: Reaction kinetics of cysteine-reactive compounds with N-acetyl-L-cysteine methyl ester (LC-MS). The test is classed as physicochemical. On the procedure:
Reaction Kinetics of Cysteine-Reactive Compounds with N-Acetyl-L-Cysteine Methyl Ester
Stock solution of cysteine-reactive compound in DMSO was diluted by PBS/MeOH solution mixture (4:1, v/v; 500 μL), reaching final concentration of 10 μM. Stock solution of N-acetyl-L-cysteine methyl ester in DMSO was then freshly prepared, and added to the compound solution at final concentration of 250 μM. The solution mixture was incubated at room temperature, and at predetermined time intervals, an aliquot of the reaction mixture (10 μL) was sent for LC-MS analysis on Waters Autopurification System using a SunFire C18 HPLC column (50×4.6 mm with 5 μm diameter particles, Waters). Separation was achieved by gradient elution from 5% to 100% MeCN in water (constant 0.1 vol % formic acid) over 4 min, isocratic elution with 100% MeCN (with 0.1 vol % formic acid) from 4 to 8 min, and returning to 5% MeCN in water (with 0.1 vol % formic acid) and equilibrated for 2 min. Selected ion chromatograms, with m/z corresponding to the molecular ion of the compound and/or the adduct, were extracted and the data was analyzed using MassLynx™ software by calculating the area under the curve. The peak area was then calibrated to concentration of the compound/adduct by a set of solution mixtures containing known concentrations of the compound/adduct.
The reactivity of NAIA with cysteine in aqueous buffer solution has been investigated by LC-MS experiments (FIGS. 1A-1J). […] Upon addition of N-acetylcysteine methyl ester (250 μM), NAIA-5 reacted quickly and completely with N-acetylcysteine methyl ester within […], as reflected by the diminishment of the peak of NAIA-5 at t=6.20 min with a concomitant growth of a new peak at t=5.60 min in the LC, which is attributable to the cysteine adduct of NAIA-5 based on the MS (FIGS. 1B-1G). […] This highlights the important contribution of aromaticity of indole scaffold to increase electrophilicity of acrylamide warhead for fast and complete cysteine reaction in aqueous buffer solution.
Next, we monitored the reaction between NAIA-amide (10 μM) and N-acetylcysteine methyl ester (250 μM) by LC-MS analysis (FIG. 17A). Complete conversion of NAIA-C5 amide was observed within 40 s as indicated by the disappearance of NAIA-C5 amide peak (t=5.09 min) and emergence of the adduct peat (t=4.80 min) in the LC trace (FIG. 17B). Likewise, the reaction of NAIA-C4 amide proceeded with fast kinetics and was completely consumed in 1 min (FIG. 17C). The calculated rate constant of NAIA-C5 amide and NAIA-C4 amide were 2-fold and 1.2-fold faster than NAIA (FIG. 17D). […] Owning to the excellent reaction rate of NAIA-C5 amide, it was taken forward for further comparative analysis in subsequent experiments.

Test [2] is described as follows: Selectivity for reacting with Cys over other amino acids (LC-MS). The class given is physicochemical. The note with it: compound 10 μM, amino acid 30 μM (3 equiv.), 30 min, PBS/MeOH 4:1. The method, then: Selectivity of NAI for Reacting with Cys Over Other Amino Acids
Stock solution of NAIA-4 and NAIA-5, respectively, in DMSO was diluted by PBS/MeOH solution mixture (4:1, v/v; 500 μL), reaching final concentration of 10 μM. Stock solution of amino acid in DMSO was then freshly prepared, and added to the compound solution at final concentration of 30 μM. The solution mixture was incubated at room temperature for 30 min. After that, an aliquot of the reaction mixture (10 μL) was sent for LC-MS analysis. Selected ion chromatograms, with m/z=325 corresponding to [NAIA-4+H]^+ or [NAIA-5+H]^+, were extracted and analyzed by integrating the area under curve.
As fast-reacting probes are often susceptible to hydrolysis, we sought to investigate the aqueous stability of NAIA-C5 amide. […] Taking the excellent reaction kinetics and a mere 14% degradation in 30 min into account, NAIA-C5 amide was considered to be a useful tool in cysteine profiling (FIG. 17C and FIG. 17F).

[3] abbreviates: compound 10 μM, N-Ac-Cys-OMe 250 μM, PBS/MeOH 4:1.

With `C#CCCCCNC(=O)CI` [IAA, N-Hex-5-ynyl-2-iodoacetamide, reference compound], the “reaction kinetics with cysteine (k)” value in test [1] (FIG. 7 legend summary) is listed as ~10^0 M^−1 s^−1. The “cysteine reaction rate (in words)” value in test [1] (compound 10 μM, N-Ac-Cys-OMe 250 μM) was “react much slower with cysteine than our NAIAs”. In addition, the compound left unreacted entry in test [1] (setting [3]) is recorded as “more than 40%”. Further, in test [2], the “selectivity toward cysteine over other amino acids” value was “undesired reactivity with serine and lysine”.
Turning to `C#CCCCCNC(=O)COc1ccc2c(ccn2C(=O)C=C)c1` [NAIA-5], the “time to complete reaction with N-acetylcysteine methyl ester” value in test [1] (setting [3]) is at most 300 s. Also, in test [2], the “selectivity toward cysteine over other amino acids” value was “excellent selectivity toward cysteine over other amino acids; also recorded: Significant decreases in NAIA-4 and NAIA-5 levels were only found in the solution mixture with N-acetyl-L-cysteine methyl ester”.
